Test results published in patent publication US20110257108A1, “SYNTHESIS AND ACTIVITY OF LACTOSE ESTERS” (Utah State University, priority 2010, published 2011).
Values belong to the compound of their own block, whether it stands above or below them.

Tests used:
[1] = Method: Aliquots, 600 μL, of each filtered sample were dried by a Savant SpeedVac system. The dry sugar in each tube was re-suspended in 600 μL de-ionized water. […] The amount of sugar in each sample was determined by comparing peak areas to the lactose-in-water control.
[2] = test system: Salmonella typhimurium (ATCC 700720); assay: Microbial growth inhibition (microtiter OD 600 nm, 48 hours); assay type: cell-based; conditions: gram negative; LML 0.001 to 0.1%; FIG. 7
Method: (§1) Referring now to FIG. 7 and Table 4, the microbial inhibitory characteristics of LML synthesized and purified as described above, were investigated against Enterococcus faecalis (ATCC 700802), Listeria monocytogenes, Staphyloccus suis, Escherichia coli H7P:0157H7 (ATCC 35150), Salmonella typhimurium (ATCC 700720) and Klebsiella pneumoniae (ATCC 700721). Cultures were grown in appropriate microbial media with antibiotics and diluted to 10^5 colony forming units (CFU) per mL. Cultures (0.5 mL or 10^2.5 CFU total) were added to microtiter wells and an initial optical density (OD) at 600 nm was recorded. For treatments, LML in concentrations ranging from 0.001 to 0.1% was added to individual microtiter wells and the OD was again measured after 48 hours. Controls were treated similarly, but without the addition of LML. Percent growth inhibition was determined by comparing the OD reading for the controls and treatments.

Staphyloccus suis = assay: as above; assay type: cell-based; conditions: gram positive, FIG. 7
Method: as §1

[3] = test system: Enterococcus faecalis (ATCC 700802); assay: as above; assay type: cell-based; conditions: gram positive, FIG. 7
Method: as §1

[4] = test system: Escherichia coli H7P:0157H7 (ATCC 35150); assay: as above; assay type: cell-based; conditions: gram negative; LML 0.001 to 0.1%; FIG. 7
Method: as §1

Listeria monocytogenes = assay: as above; assay type: cell-based; conditions: gram positive, FIG. 7
Method: as §1

[5] = test system: Klebsiella pneumoniae (ATCC 700721); assay: as above; assay type: cell-based; conditions: gram negative; LML 0.001 to 0.1%; FIG. 7
Method: as §1

[6] = test system: clinical isolates of Listeria monocytogenes; assay: Microbial inhibitory studies with clinical isolates (microtitre well plate method, plate counts); assay type: cell-based
Excerpt: Referring now to FIGS. 8 through 12, in light of the microbial inhibitory effect shown with Listeria monocytogenese, we obtained clinical isolates of Listeria monocytogenes from the International Life Science Institute Database, Cornell University and tested LM at the same concentrations as listed above with the clinical isolate. Inhibitory effects against clinical isolates of Listeria monocytogenese are shown in FIGS. 8, 9, 10, 11 and 12 (inhibition shown is percent growth inhibition). The clinical isolates are described in Table 5.
Still referring to FIGS. 8 through 12, microbial inhibitory studies were carried out in microtitre well plate method. Cultures were grown in appropriate microbial media with antibiotics and diluted to 10^5 colony forming units (CFU) per mL. Cultures (0.5 mL or 10^2.5 CFU total) were added to microtiter wells and an initial optical density (OD) at 600 nm was recorded. The studies were conducted by adding different concentrations of LML as described above with appropriate controls (media only, media plus cells, media plus cells and 0.1% Polysorbate 80, same amount of ethanol as in the vol of LML plus 0.1% polysorbate 80 with cells). Plate counts of all controls and treatments were done. For each strain and treatment, the experiments were done 6 times and replicated at least once. Data shown has a coefficient of variation of less than 10%. […]

solubility in 2M2B [1]: 700-800 micromol/L solvent
solubility in the other solvents [1]: 50-200 micromol/L solvent
Compound: OC[C@H]1O[C@@](CO)(O[C@H]2O[C@H](CO)[C@@H](O)[C@H](O)[C@H]2O)[C@@H](O)[C@@H]1O [sucrose]

Compound: lactose monolaurate [LML]
susceptibility to inhibition [2]: minimal susceptibility
growth inhibition (Staphyloccus suis; LML 0.005% and less): limited inhibition
growth inhibition (Staphyloccus suis; LML 0.1% (1 mg/mL)): inhibited
growth inhibition ([3]; LML 0.005% and less): limited inhibition
growth inhibition ([3]; LML 0.1% (1 mg/mL)): inhibited
susceptibility to inhibition [4]: minimal susceptibility
growth inhibition (Listeria monocytogenes; LML 0.005% and less): limited inhibition
growth inhibition (Listeria monocytogenes; LML 0.1% (1 mg/mL)): inhibited
susceptibility to inhibition [5]: minimal susceptibility
percent growth inhibition ([6]; LML 1.0 mg/mL, each strain (J1-177, C1-056, N3-013, R2-499, N1-227), with 0.1% Polysorbate 80, versus control with ethanol and tween): 70-90%
type of inhibition (plate counts) ([6]; plate counts of treatments compared to the controls): bacterial static
